Results as given in EPA's ToxValDB 9.5 (doi:10.2903/j.efsa.2011.2091).
Values after ≈ are worked out from the molar mass of the structure shown.

Columns and labels:
[1] = system: Rattus norvegicus
[2] = system: Bibionidae; conditions: chronic/long-term; duration: 28 days; development
[3] = system: Colinus virginianus; conditions: acute, oral, mortality; for LC50: diet
[4] = system: Anas platyrhynchos; conditions: reproductive; mortality
[5] = system: Tagia sp.
[6] = system: Landoltia sp.; conditions: acute; duration: 14 days; frond number
[7] = system: Oncorhynchus mykiss; conditions: chronic/long-term; duration: 21 days; mortality
[8] = system: Oryctolagus sp.; conditions: chronic; mortality
[9] = system: Apis mellifera; conditions: acute, mortality
[10] = system: Lepomis macrochirus; conditions: acute; duration: 96 hours; mortality
[11] = system: Daphnia magna; conditions: chronic/long-term; duration: 21 days; reproduction

Structure (SMILES): CCCCCCC(C)OC(=O)COc1nc(F)c(Cl)c(N)c1Cl (centres undefined) [Fluroxypyr-meptyl]
- LD50 ([1]; acute, oral, mortality): > 2000 mg/kg-day
- NOEC [2]: 0.13 mg/L
- LC50 [3]: > 1040 mg/kg-day
- LD50 [3]: > 2000 mg/kg-day
- NOEC [4]: 57.8 mg/kg-day

Structure (SMILES): Nc1c(Cl)c(F)nc(OCC(=O)O)c1Cl [Fluroxypyr]
- NOAEL ([1]; chronic, duration: 2 years): 80 mg/kg-day
- NOAEL ([1]; subchronic, oral): 80 mg/kg-day
- LC50 ([5]; acute, duration: 14 days, mortality): 64.8 mg/kg
- NOEC ([5]; chronic/long-term, duration: 56 days): 3.05 mg/kg
- LC50 [6]: 12.3 µg/mL (≈ 48.2 µM)
- NOEC [7]: 100 mg/L
- LC50 [3]: > 757 mg/kg-day
- LD50 [3]: > 2000 mg/kg-day
- NOEC [4]: 40.1 mg/kg-day
- NOEL [8]: 100 mg/kg-day
- LD50 ([9]; dermal): > 180 µg/piece
- LD50 ([9]; oral, unspecified): 37.1 µg/piece
- LC50 [10]: 14.3 µg/mL (≈ 56.1 µM)
- NOEC [11]: 56 mg/L
